Test results: patent publication US11767319B2, “Crystalline forms of a selective c-kit kinase inhibitor” (Third Harmonic Bio, Inc., priority 2020, dated 2023)
Entries after “also recorded” stand apart in the source; their conditions may differ. One block for each molecule: values may come before it.

What was measured:
Type in all cases: physicochemical
[1] = Slurry experiments in SGF; conditions: 37° C., 500 rpm
Experimental: About 200 mg of sodium chloride and about 100 mg Triton X-100 was weighted into a 100-mL volumetric flask. About 100 mL of purified water was added to the flask and the solution was sonicated until all solids were completely dissolved. 1 M HCl was added to adjust the pH to 1.8 and the solution was mixed well and the pH was checked with a pH meter.
Competitive slurry experiments were performed for Forms A, H^A, H^B, C and D in SGF. About 10 mg of each form was added into separate HPLC vials followed by addition of 1.0 mL SGF in order to form slurries. The slurries were heated to 37° C. and stirred at 500 rpm. After 2 h or 24 h, the samples were centrifuged and the solids were collected for XRPD testing.

[2] = Hydration mapping starting with Form A
Experimental: To establish the hydration map of compound 1, solutions with varying water activity (aw) were prepared and the aw was measured using a water activity meter. Table 13 below details the solvent systems investigated and their corresponding measured water activities.
23×20 mg of Form A of compound 1 was weighed into vials. 1 mL of solvent (see tables above) was added to each vial to form a slurry. After manual shaking for a few seconds, where solutions were observed, an additional ˜10 to 20 mg of solid was added to produce a slurry. Additional solid was added to the 2-MeTHF, water/2-MeTHF (1:99% v/v), acetone/water (aw of 0.92) and methanol/water (aw of 0.11) samples. All slurries were then agitated for 24 h at 25° C. After 24 h, aliquots of solid were isolated via centrifugal filtration and analysed by XRPD. The remaining slurries were agitated for a further 5 days (total of 6 days). The solids were isolated and analysed by XRPD. All identified forms were analysed by XRPD, TG/DSC and ^1H NMR (where sufficient material was available).

[3] = Ethanol/hydrocarbon mixtures slurry study
Experimental: Using the methods described above for the Form A input and amorphous input experiments, 5×20 mg of Form A slurries and 5×20 mg of amorphous input slurries were prepared by adding 1 mL of solvent (see Table 16 below) to each vial and the resulting slurries were agitated for 24 h at 25° C. After 24 h, aliquots of solid were isolated via centrifugal filtration and analysed by XRPD.

[4] = Form investigation in buffered media; conditions: for XRPD Pattern / pH (24 h): 24 h at 25° C.
Experimental: To investigate the polymorphic landscape of compound 1 in buffered systems, 5×20 mg of Form A slurries and 5×20 mg of amorphous slurries (amorphous material prepared using the method described in the above hydration mapping experiments) were prepared by adding 1 mL of buffer to each vial and the resulting slurries were agitated for 24 h at 25° C. The pH was measured post-buffer addition and after 24 h agitation. After 24 h, aliquots of solid were isolated via centrifugal filtration and analysed by XRPD.

[5] = Dynamic Vapor Sorption (DVS) of Form C
Experimental: Approximately, 10 mg of sample was placed into a mesh vapor sorption balance pan and loaded into a DVS-1/DVS Intrinsic/DVS Advantage dynamic vapor sorption balance by Surface Measurement Systems. The sample was subjected to a ramping profile from 40-90% relative humidity (RH) at 10% increments, maintaining the sample at each step until a stable weight had been achieved (dm/dt 0.004%, minimum step length 30 min, maximum step length 500 min) at 25° C. After completion of the sorption cycle, the sample was dried using the same procedure to 0% RH and then a second sorption cycle back to 40% RH. Two cycles were performed. The weight change during the sorption/desorption cycles were plotted, allowing for the hygroscopic nature of the sample to be determined. XRPD analysis was then carried out on any solid retained.
FIGS. 1D and 1E depict DVS plots of Form C of compound 1. […] Below 20% RH, Form C experienced a mass loss of 8.6%, about equal to 2 equivalents of water.
(§1) FIG. 1F depicts a set of XRPD patterns of Form C of compound 1, comparing the originally isolated form, material after DVS experiments and material after being dried under vacuum. […] Form G was also observed after vacuum drying of Form C.

Vacuum drying of Form C = conditions: dried under vacuum
Experimental: as §1
Procedure A: Form C of compound 1 was dried under vacuum at 40° C. for about 2 hours. After drying Form G was recovered.

[6] = Competitive slurry experiments among anhydrates (IPA/IPAc); conditions: at RT and 50° C., IPA/IPAc slurries
Experimental: Competitive slurry experiments were performed in IPA/IPAc at RT/50° C. between anhydrates Form A of compound 1 and Form D of compound 1. Form A of compound 1 was added into each solvent to form a slurry at RT or 50° C. and was stirred for 2 h. The slurries were then filtered to obtain saturated solution. Around 10 mg each of Form A of compound 1 and Form D of compound 1 were added into each solution to form a mixed slurry at RT or 50° C. […] The formation of Form H^A of compound 1 is postulated to be caused by residual water in the solvents or due to ambient humidity (˜35% humidity during slurry experiments).

[7] = Acetone/Water, aw 0.1363, 25° C.
[8] = Acetone/Water, aw 0.2621, 25° C.
[9] = Acetone/Water, aw 0.5455, 25° C.
[10] = EtOH/Heptane, aw 0.0300, 25° C.
[11] = Water/2-MeTHF, aw 0.5286, 25° C.

XRPD at 2 h [1]: transformed to Form C | XRPD at 24 h [1]: transformed to Form C | XRPD pattern observed, 24 h ([2]; 2-MeTHF, aw 0.0378, 25° C.): Form A | XRPD pattern observed, 6 Days ([2]; 2-MeTHF, aw 0.0378, 25° C.): Form A | XRPD pattern observed, 24 h [2, 7]: Form H^A | XRPD pattern observed, 6 Days [2, 7]: Form H^A | XRPD pattern observed, 24 h [2, 8]: Form H^A | XRPD pattern observed, 6 Days [2, 8]: Form H^A | XRPD pattern observed, 24 h [2, 9]: Form H^A | XRPD pattern observed, 6 Days [2, 9]: Form H^A | XRPD pattern observed, 6 Days ([2]; Acetone/Water, aw 0.7082, 25° C.): Form H^A | XRPD pattern observed, 24 h [2, 10]: Form A | XRPD pattern observed, 6 Days [2, 10]: Form A | XRPD pattern observed, 24 h ([2]; EtOH/Water, aw 0.1580, 25° C.): Form H^A | XRPD pattern observed, 6 Days ([2]; EtOH/Water, aw 0.1580, 25° C.): Form H^A | XRPD pattern observed, 24 h ([2]; EtOH/Water, aw 0.3377, 25° C.): Form H^A | XRPD pattern observed, 6 Days ([2]; EtOH/Water, aw 0.3377, 25° C.): Form H^A | XRPD pattern observed, 24 h ([2]; EtOH/Water, aw 0.4986, 25° C.): Form H^A | XRPD pattern observed, 6 Days ([2]; EtOH/Water, aw 0.4986, 25° C.): Form H^A | XRPD pattern observed, 24 h ([2]; EtOH/Water, aw 0.7600, 25° C.): Form H^A | XRPD pattern observed, 6 Days ([2]; EtOH/Water, aw 0.7600, 25° C.): Form H^A | XRPD pattern observed, 24 h ([2]; EtOH/Water, aw 0.9005, 25° C.): Form A | XRPD pattern observed, 24 h ([2]; MeCN/Water, aw 0.1060, 25° C.): Form H^A | XRPD pattern observed, 6 Days ([2]; MeCN/Water, aw 0.1060, 25° C.): Form H^A | XRPD pattern observed, 24 h ([2]; MeCN/Water, aw 0.3664, 25° C.): Form H^A | XRPD pattern observed, 6 Days ([2]; MeCN/Water, aw 0.3664, 25° C.): Form H^A | XRPD pattern observed, 24 h ([2]; MeCN/Water, aw 0.5573, 25° C.): Form H^A | XRPD pattern observed, 6 Days ([2]; MeCN/Water, aw 0.5573, 25° C.): Form H^A | XRPD pattern observed, 6 Days ([2]; MeCN/Water, aw 0.7300, 25° C.): Form H^A | XRPD pattern observed, 24 h ([2]; MeOH/Water, aw 0.0963, 25° C.): Form H^A | XRPD pattern observed, 6 Days ([2]; MeOH/Water, aw 0.0963, 25° C.): Form H^A | XRPD pattern observed, 24 h ([2]; MeOH/Water, aw 0.3242, 25° C.): Form H^A | XRPD pattern observed, 6 Days ([2]; MeOH/Water, aw 0.3242, 25° C.): Form H^A | XRPD pattern observed, 24 h ([2]; MeOH/Water, aw 0.5145, 25° C.): Form H | XRPD pattern observed, 6 Days ([2]; MeOH/Water, aw 0.5145, 25° C.): Form H^A | XRPD pattern observed, 24 h ([2]; MeOH/Water, aw 0.6965, 25° C.): Form H | XRPD pattern observed, 6 Days ([2]; MeOH/Water, aw 0.6965, 25° C.): Form H | XRPD pattern observed, 24 h ([2]; MeOH/Water, aw 0.9294, 25° C.): Form A | XRPD pattern observed, 6 Days ([2]; MeOH/Water, aw 0.9294, 25° C.): Form C | XRPD pattern observed, 24 h [2, 11]: Form H^A | XRPD pattern observed, 6 Days [2, 11]: Form H^A | XRPD pattern observed ([3]; EtOH/Cyclohexane (50:50% v/v), aw 0.025, 24 h at 25° C.): Form A | XRPD pattern observed ([3]; EtOH/Dodecane (50:50% v/v), aw 0.024, 24 h at 25° C.): Form A | XRPD pattern observed ([3]; EtOH/Hexane (50:50% v/v), aw 0.018, 24 h at 25° C.): Form A | XRPD pattern observed ([3]; EtOH/Methylcyclohexane (50:50% v/v), aw 0.019, 24 h at 25° C.): Form A | XRPD pattern observed ([3]; EtOH/Octane (50:50% v/v), aw 0.019, 24 h at 25° C.): Form A | XRPD Pattern ([4]; NaOH (0.2M)): Form H^A and Form C | XRPD Pattern ([4]; pH 1.2 (HCl—KCl)): HCl Salt Form | XRPD Pattern ([4]; pH 4.5 (acetate)): Form F | XRPD Pattern ([4]; pH 6.8 (phosphate)): Form H^A | XRPD Pattern ([4]; pH 8 (PBS)): Form H^A | pH (Post-Buffer Addition) ([4]; slurry in NaOH (0.2M)): 11.98 | pH (24 h) ([4]; slurry in NaOH (0.2M)): 11.91 | pH (Post-Buffer Addition) ([4]; slurry in pH 1.2 (HCl—KCl)): 1.20 | pH (24 h) ([4]; slurry in pH 1.2 (HCl—KCl)): 1.19 | pH (Post-Buffer Addition) ([4]; slurry in pH 4.5 (acetate)): 4.63 | pH (24 h) ([4]; slurry in pH 4.5 (acetate)): 4.62 | pH (Post-Buffer Addition) ([4]; slurry in pH 6.8 (phosphate)): 6.87 | pH (24 h) ([4]; slurry in pH 6.8 (phosphate)): 6.88 | pH (Post-Buffer Addition) ([4]; slurry in pH 8 (PBS)): 8.04 | pH (24 h) ([4]; slurry in pH 8 (PBS)): 8.17
Structure (SMILES): Cc1ccc(-c2noc([C@H]3C[C@@H]3F)n2)cc1NC(=O)c1cnc2ccccn12 [Form A, N-(5-(5-((1R,2S)-2-fluorocyclopropyl)-1,2,4-oxadiazol-3-yl)-2-methylphenyl)imidazo[1,2-a]pyridine-3-carboxamide]

form after DVS (XRPD) ([5]; after DVS experiments): converted into Form G | mass loss (DVS) ([5]; below 20% RH, 25° C.): 8.6% | total mass uptake (DVS) ([5]; between 20% and 90% RH, 25° C.): 0.6% | XRPD at 2 h [1]: No form change; also recorded: Form C | XRPD at 24 h [1]: No form change; also recorded: Form C | form after vacuum drying (XRPD) (Vacuum drying of Form C): Form G
Structure (SMILES): Cc1ccc(-c2noc([C@H]3C[C@@H]3F)n2)cc1NC(=O)c1cnc2ccccn12 [Form C, N-(5-(5-((1R,2S)-2-fluorocyclopropyl)-1,2,4-oxadiazol-3-yl)-2-methylphenyl)imidazo[1,2-a]pyridine-3-carboxamide]

XRPD at 2 h [1]: No form change; also recorded: Form H^A | XRPD at 2 h ([1]; listed as Form H^B): No form change; also recorded: Form H^B | XRPD at 24 h [1]: No form change; also recorded: Form H^A | XRPD at 24 h ([1]; listed as Form H^B): No form change; also recorded: Form H^B
Structure (SMILES): Cc1ccc(-c2noc([C@H]3C[C@@H]3F)n2)cc1NC(=O)c1cnc2ccccn12 [Form H^A, N-(5-(5-((1R,2S)-2-fluorocyclopropyl)-1,2,4-oxadiazol-3-yl)-2-methylphenyl)imidazo[1,2-a]pyridine-3-carboxamide]
relative thermodynamic stability [6]: thermodynamically more stable than Form A
